Each structure is given as a SMILES string. Where a name gives a salt, the structure may show the parent alone.

One test deals with AaDOP2 (Aedes aegypti, UniProt H6D5H2). Briefly: AaDOP2 antagonist screen of the LOPAC1280 library (HEK-CRELuc-Aadop2 cells, luminescence). Format: cell-based.
Chain of AaDOP2 (H6D5H2 1-476): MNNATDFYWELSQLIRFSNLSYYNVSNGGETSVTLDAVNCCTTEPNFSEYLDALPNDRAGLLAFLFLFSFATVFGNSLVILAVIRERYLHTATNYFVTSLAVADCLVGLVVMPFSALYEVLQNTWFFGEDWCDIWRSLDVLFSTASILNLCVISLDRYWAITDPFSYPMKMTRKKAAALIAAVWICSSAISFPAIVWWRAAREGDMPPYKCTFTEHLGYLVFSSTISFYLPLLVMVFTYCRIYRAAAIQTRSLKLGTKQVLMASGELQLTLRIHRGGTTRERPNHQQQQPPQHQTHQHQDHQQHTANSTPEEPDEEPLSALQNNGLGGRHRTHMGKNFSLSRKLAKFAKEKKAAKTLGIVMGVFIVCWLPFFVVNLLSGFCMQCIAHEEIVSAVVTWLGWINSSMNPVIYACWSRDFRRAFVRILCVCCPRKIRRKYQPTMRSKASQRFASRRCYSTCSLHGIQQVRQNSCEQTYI
Conditions: not given
Regarding `C[C@@]1(C2CCCC2)Cc2cc(OCC(=O)O)c(Cl)c(Cl)c2C1=O` [Compound 668, R(+)-IAA-94], the “Compound effect (percent receptor signaling in presence of test compound, relative lux units relative to the SCH23390 control)” value amounted to 100.
The same measure, in the same setting: to `CN[C@@H]1C[C@@H](c2ccc(Cl)c(Cl)c2)c2ccccc21` [Compound 669, Indatraline hydrochloride] belongs 54; to `CC(C)NC(C)Cc1ccc(I)cc1` (centres unmarked) [Compound 670, Iofetamine hydrochloride], 90.
Same read-out and setting: to `CN(C(=O)Cc1ccc(Cl)c(Cl)c1)C(CN1CCCC1)c1cccc(OCC(=O)O)c1.Cl` (centres unmarked) [Compound 671, ICI 204,448 hydrochloride] belongs 97; to `N=C(N)SCCc1cnc[nH]1` [Compound 673, Imetit dihydrobromide], 91; to `Oc1cccc2c(O)nccc12` [Compound 674, 1,5-Isoquinolinediol], 92.
The same measure, in the same setting: for `CNC(=O)[C@H]1O[C@@H](n2cnc3c(NCc4cccc(I)c4)ncnc32)[C@H](O)[C@@H]1O` [Compound 676, IB-MECA] the value was 105; for `COc1ccc2c(c1)c(CC(=O)N1CCOCC1)c(C)n2C(=O)c1ccc(Cl)cc1` [Compound 677, Indomethacin morpholinylamide], 89.
`Cl.Fc1ccc(C(OCCCc2c[nH]cn2)c2ccc(F)cc2)cc1` [Compound 678, 3-(1H-Imidazol-4-yl)propyl di(p-fluorophenyl)methyl ether hydrochloride]: the “Compound effect (percent receptor signaling in presence of test compound, relative lux units relative to the SCH23390 control)” value is 52.
The same measure, in the same setting: for `O=C(O)C1CCNCC1` [Compound 679, Isonipecotic acid] the value was 94; for `CCCn1c(C)c(C(=O)c2cccc3ccccc23)c2ccccc21` [Compound 680, JWH-015], 73.
As to `Cc1ccc2c(c1)C(N1CCN(C)CC1)=Nc1cccnc1N2` [Compound 681, JL-18], the “% of the SCH23390 effect (percent inhibition of receptor response relative to the SCH23390 control)” value came out at 98% and the “Compound effect (percent receptor signaling in presence of test compound, relative lux units relative to the SCH23390 control)” value came out at 2.
For `C=C(C)[C@H]1CN[C@H](C(=O)O)[C@H]1CC(=O)O` [Compound 682, Kainic acid], the “Compound effect (percent receptor signaling in presence of test compound, relative lux units relative to the SCH23390 control)” value was 98.
Same read-out and setting: for `CC(=O)N1CCN(c2ccc(OCC3COC(Cn4ccnc4)(c4ccc(Cl)cc4Cl)O3)cc2)CC1` (centres unmarked) [Compound 683, Ketoconazole] the value was 85.
On the same count and under the same terms, for `CC(C(=O)O)c1cccc(C(=O)c2ccccc2)c1` (centres unmarked) [Compound 685, Ketoprofen] the value was 101.
As for `CCCC(=O)NCCc1c2n(c3ccc(OC)cc13)CCCc1ccccc1-2` [Compound 686, K 185], the “Compound effect (percent receptor signaling in presence of test compound, relative lux units relative to the SCH23390 control)” value was determined as 80.
For the compound `CN1CCC(=C2c3ccccc3CC(=O)c3sccc32)CC1` [Compound 687, Ketotifen fumarate], the “Compound effect (percent receptor signaling in presence of test compound, relative lux units relative to the SCH23390 control)” value was 4.
In the case of `O=C(O)c1cc(=O)c2ccccc2[nH]1` [Compound 688, Kynurenic acid], the “Compound effect (percent receptor signaling in presence of test compound, relative lux units relative to the SCH23390 control)” value came out at 99.
The same measure, in the same setting: for `O=C1Cc2c([nH]c3ccc(Br)cc23)-c2ccccc2N1` [Compound 689, Kenpaullone] the value was 17; for `CCN1C[C@]2(C)CC[C@H](O)[C@]34C1[C@@H](C[C@H]23)[C@@]1(O)C[C@H](OC)[C@H]2C[C@@H]4[C@@H]1[C@H]2O` [Compound 690, Karakoline], 101; for `O=c1[nH]c2cc(Cl)ccc2c(O)c1-c1cccc(Oc2ccccc2)c1` [Compound 691, L-701,324], 90.
Take `CC(C(=O)O)c1ccc(CC2CCCC2=O)cc1` (centres unmarked) [Compound 692, loxoprofen]: the “Compound effect (percent receptor signaling in presence of test compound, relative lux units relative to the SCH23390 control)” value was found to be 92.
Still for that read-out and setting: for `CC(CCc1ccccc1)NCC(O)c1ccc(O)c(C(N)=O)c1` (centres unmarked) [Compound 693, Labetalol hydrochloride] the value was 83; for `CCCCOC(=O)NS(=O)(=O)c1sc(CC(C)C)cc1-c1ccc(Cn2c(CC)nc3c(C)cc(C)nc32)cc1` [Compound 694, L-162,313], 99.
With `CC[N+](C)(CC)CC(=O)Nc1c(C)cccc1C.[Cl-]` [Compound 695, Lidocaine N-methyl hydrochloride], the “Compound effect (percent receptor signaling in presence of test compound, relative lux units relative to the SCH23390 control)” value is on record as 92.
Still for that read-out and setting: to `CC1(C)CCC2=C(O1)c1ccccc1C(=O)C2=O` [Compound 696, beta-Lapachone] belongs 14; to `O=S1(=O)N(CCN2CC=C(c3c[nH]c4cc(F)ccc34)CC2)c2cccc3c2N1CCC3` [Compound 697, LY-367,265], 29; to `Cc1ccccc1N1CCN(S(=O)(=O)C[C@]23CC[C@H](C[C@@H]2NC(=O)[C@@H](N)CCS(C)(=O)=O)C3(C)C)CC1` [Compound 699, L-368,899], 94.
For `CCn1cc(C(=O)O)c(=O)c2cc(F)c(N3CCNC(C)C3)c(F)c21` (centres unmarked) [Compound 700, Lomefloxacin hydrochloride], the “Compound effect (percent receptor signaling in presence of test compound, relative lux units relative to the SCH23390 control)” value is 90.
Same read-out and setting: for `Nc1nnc(-c2cccc(Cl)c2Cl)c(N)n1` [Compound 701, Lamotrigine] the value was 87.
The same measure, in the same setting: to `CN1[C@@H](CC(=O)c2ccccc2)CCC[C@H]1C[C@H](O)c1ccccc1.Cl` [Compound 702, alpha-Lobeline hydrochloride] belongs 89; to `CN(C)C(=O)C(CCN1CCC(O)(c2ccc(Cl)cc2)CC1)(c1ccccc1)c1ccccc1` [Compound 703, Loperamide hydrochloride], 83; to `O=C(O)c1nn(Cc2ccc(Cl)cc2Cl)c2ccccc12` [Compound 704, Lonidamine], 90.
The same measure, in the same setting: to `Cc1oncc1C(=O)Nc1ccc(C(F)(F)F)cc1` [Compound 705, Leflunomide] belongs 97.
Consider `CN1CCc2ccccc2Cc2[nH]c3ccccc3c2CC1` [Compound 710, LE 300], for which the “% of the SCH23390 effect (percent inhibition of receptor response relative to the SCH23390 control)” value came out at 99% and the “Compound effect (percent receptor signaling in presence of test compound, relative lux units relative to the SCH23390 control)” value worked out at 1.
Take `Cc1c(OCC(F)(F)F)ccnc1C[S+]([O-])c1nc2ccccc2[nH]1` (centres unmarked) [Compound 711, Lansoprazole]: the “Compound effect (percent receptor signaling in presence of test compound, relative lux units relative to the SCH23390 control)” value came to 91.
Same read-out and setting: to `Cl.c1ccc(CN2CCC3(CCCc4ccccc43)CC2)cc1` [Compound 712, L-687,384 hydrochloride] belongs 87; to `C/C(O)=C(\C#N)C(=O)Nc1cc(Br)ccc1Br` [Compound 713, LFM-A13], 98.
Still for that read-out and setting: for `O=c1cc(-c2ccc(O)c(O)c2)oc2cc(O)cc(O)c12` [Compound 714, Luteolin] the value was 87.
Turning to `Cc1c(CC(C)(C)C(=O)O)n(Cc2ccc(Cl)cc2)c2ccc(F)cc12` [Compound 715, L-655,240], the “Compound effect (percent receptor signaling in presence of test compound, relative lux units relative to the SCH23390 control)” value is reported as 73.
The same measure, in the same setting: for `CCOC(=O)N1CCC(=C2c3ccc(Cl)cc3CCc3cccnc32)CC1` [Compound 716, Loratadine] the value was 88.
For `Cl.c1ccc([C@H]2CN3CCSC3=N2)cc1` [Compound 717, (-)-Tetramisole hydrochloride], the “Compound effect (percent receptor signaling in presence of test compound, relative lux units relative to the SCH23390 control)” value stood at 90.

Staying with this test, now noted: 10 µM compound, 300 nM dopamine, 2 hr.
In the case of `CC1(C)C(=O)N(CCN2CCC(C(=O)c3ccc(F)cc3)CC2)c2ccccc21.Cl` [Compound 698, LY-310,762 hydrochloride], the “% of the SCH23390 effect (percent inhibition of receptor response relative to the SCH23390 control)” value came out at 81%.

The same test, now with this note: 10 µM compound, 300 nM dopamine, 2 hr; hit = compound effect <20.
`Cl.Clc1cc(I)cc(Cl)c1NC1=NCCN1` [Compound 667, p-Iodoclonidine hydrochloride]: the “Compound effect (percent receptor signaling in presence of test compound, relative lux units relative to the SCH23390 control)” value worked out at 83%.
The same measure, in the same setting: to `Cc1ccc(OCC(O)C(C)NC(C)C)c2c1CCC2.Cl` (centres unmarked) [Compound 672, ICI 118,551 hydrochloride] belongs 92%; to `CCN1CCC[C@H]1CNC(=O)c1c(OC)ccc(I)c1O` [Compound 675, S(-)-IBZM], 85%.
The same measure, in the same setting: to `NC(CO)(CO)CO.O=C(c1ccccc1)c1ccc2n1CCC2C(=O)O` (centres unmarked) [Compound 684, Ketorolac tris salt] belongs 98%; to `CC1(C)C(=O)N(CCN2CCC(C(=O)c3ccc(F)cc3)CC2)c2ccccc21.Cl` [Compound 698, LY-310,762 hydrochloride], 19%.

Staying with this test, now noted: read-out: % of the SCH23390 effect (percent inhibition of receptor response relative to the SCH23390 control).
What is called inhibition is the relative decrease from the control value, in per cent. With `CN1CCC(=C2c3ccccc3CC(=O)c3sccc32)CC1` [Compound 687, Ketotifen fumarate], the inhibition at 10 µM is 96%.
Same read-out and setting: to `O=C1Cc2c([nH]c3ccc(Br)cc23)-c2ccccc2N1` [Compound 689, Kenpaullone] belongs 83%.
On the same count and under the same terms, for `CC1(C)CCC2=C(O1)c1ccccc1C(=O)C2=O` [Compound 696, beta-Lapachone] the value was 86%.

These data come from paper PMC3265452 (PLoS Neglected Tropical Diseases, 2012).
